Source: BindingDB's records for doi:10.1021/jm970389+ (Abbott Laboratories, 1998)

Assay: Binding potency against Platelet activating factor (PAF) receptor using [3H]C18-PAF as radioligand on rabbit platelet membranes

Row | Compound | Ki [nM]
1 | COC(=O)c1cccc2c1c(C(=O)CCCCCCn1c(C)nc3cnccc31)cn2C(=O)N(C)C [1-Dimethylcarbamoyl-3-[7-(2-methyl-imidazo[4,5-c]pyridin-1-yl)-heptanoyl]-1H-indole-4-carboxylic acid methyl ester] | 9.4
2 | COC(=O)c1cccc2c1c(C(=O)c1ccc(Cn3c(C)nc4c(Cl)nccc43)cc1)cn2C(=O)N(C)C [3-[4-(4-Chloro-2-methyl-imidazo[4,5-c]pyridin-1-ylmethyl)-benzoyl]-1-dimethylcarbamoyl-1H-indole-4-carboxylic acid methyl ester] | 1.8
3 | Cc1nc2cnccc2n1CCCCCC(=O)c1cn(C(=O)N(C)C)c2cccc(-c3ccc(F)cc3)c12 [4-(4-Fluoro-phenyl)-3-[6-(2-methyl-imidazo[4,5-c]pyridin-1-yl)-hexanoyl]-indole-1-carboxylic acid dimethylamide] | 3.2
4 | COC(=O)c1cc(C#Cc2ccccc2)cc2c1c(C(=O)c1ccc(Cn3c(C)nc4cnccc43)cc1)cn2C(=O)N(C)C [1-Dimethylcarbamoyl-3-[4-(2-methyl-imidazo[4,5-c]pyridin-1-ylmethyl)-benzoyl]-6-phenylethynyl-1H-indole-4-carboxylic acid methyl ester] | 0.95
5 | COC(=O)c1cccc2c1c(C(=O)c1ccc(Cn3c(C)nc4ccccc43)cc1)cn2C(=O)N(C)C [1-Dimethylcarbamoyl-3-[4-(2-methyl-benzoimidazol-1-ylmethyl)-benzoyl]-1H-indole-4-carboxylic acid methyl ester] | 0.92
6 | Cc1nc2cnccc2n1Cc1ccc(C(=O)c2cn(C(=O)N(C)C)c3cccc(O)c23)cc1 [4-Hydroxy-3-[4-(2-methyl-imidazo[4,5-c]pyridin-1-ylmethyl)-benzoyl]-indole-1-carboxylic acid dimethylamide] | 6.1
7 | COC(=O)c1cccc2c1c(C(=O)c1ccc(Cn3c(C)nc4cnccc43)cc1)cn2C(=O)N1CCCC1 [3-[4-(2-Methyl-imidazo[4,5-c]pyridin-1-ylmethyl)-benzoyl]-1-(pyrrolidine-1-carbonyl)-1H-indole-4-carboxylic acid methyl ester] | 11
8 | COC(=O)c1cccc2c1c(C(=O)Cc1ccc(-n3c(C)nc4cnccc43)cc1)cn2C(=O)N(C)C [1-Dimethylcarbamoyl-3-{2-[4-(2-methyl-imidazo[4,5-c]pyridin-1-yl)-phenyl]-acetyl}-1H-indole-4-carboxylic acid methyl ester] | 0.63
9 | COc1cccc2c1c(C(=O)c1ccc(Cn3c(C)nc4cnccc43)cc1)cn2C(=O)N(C)C [4-Methoxy-3-[4-(2-methyl-imidazo[4,5-c]pyridin-1-ylmethyl)-benzoyl]-indole-1-carboxylic acid dimethylamide] | 2
10 | COC(=O)c1cccc2c1c(C(=O)c1ccc(Cn3c(C)nc4c(=O)[nH]ccc43)cc1)cn2C(=O)N(C)C [1-Dimethylcarbamoyl-3-[4-(2-methyl-4-oxo-4,5-dihydro-imidazo[4,5-c]pyridin-1-ylmethyl)-benzoyl]-1H-indole-4-carboxylic acid methyl ester] | 4
11 | COC(=O)c1cccc2c1c(C(=O)CCCCCn1c(C)nc3cnccc31)cn2C(=O)N(C)C [1-Dimethylcarbamoyl-3-[6-(2-methyl-imidazo[4,5-c]pyridin-1-yl)-hexanoyl]-1H-indole-4-carboxylic acid methyl ester] | 6.1
12 | COC(=O)c1cccc2c1c(C(=O)c1ccc(Cn3c(C)nc4cnccc43)cc1)cn2CC(=O)N(C)C [1-Dimethylcarbamoylmethyl-3-[4-(2-methyl-imidazo[4,5-c]pyridin-1-ylmethyl)-benzoyl]-1H-indole-4-carboxylic acid methyl ester] | 4.4
13 | Cc1nc2cnccc2n1Cc1csc(C(=O)c2cn(C(=O)N(C)C)c3cc(-c4ccc(F)cc4)ccc23)n1 [6-(4-Fluoro-phenyl)-3-[4-(2-methyl-imidazo[4,5-c]pyridin-1-ylmethyl)-thiazole-2-carbonyl]-indole-1-carboxylic acid dimethylamide] | 39
14 | COC(=O)c1cccc2c1c(C(=O)c1ccc(Cn3c(C)nc4c(C)nc(C)cc43)cc1)cn2C(=O)N(C)C [1-Dimethylcarbamoyl-3-[4-(2,4,6-trimethyl-imidazo[4,5-c]pyridin-1-ylmethyl)-benzoyl]-1H-indole-4-carboxylic acid methyl ester] | 120
15 | COC(=O)c1cccc2c1c(C(=O)c1ccc(Cn3c(C)nc4cnccc43)cc1)cn2S(=O)(=O)N(C)C [1-Dimethylsulfamoyl-3-[4-(2-methyl-imidazo[4,5-c]pyridin-1-ylmethyl)-benzoyl]-1H-indole-4-carboxylic acid methyl ester] | 4.3
16 | Cc1nc2ccn(Cc3ccc(C(=O)c4cn(C(=O)N(C)C)c5cc(-c6ccc(F)cc6)ccc45)cc3)cc-2n1 [6-(4-Fluoro-phenyl)-3-[4-(2-methyl-imidazo[4,5-c]pyridin-5-ylmethyl)-benzoyl]-indole-1-carboxylic acid dimethylamide] | > 1000
17 | Cc1nc2cnccc2n1Cc1ccc(C(=O)c2c[nH]c3c(OCc4ccccc4)cccc23)cc1 [(7-Benzyloxy-1H-indol-3-yl)-[4-(2-methyl-imidazo[4,5-c]pyridin-1-ylmethyl)-phenyl]-methanone] | 12
18 | CCOCCn1cc(C(=O)c2ccc(Cn3c(C)nc4cnccc43)cc2)c2c(C(=O)OC)cccc21 [1-(2-Ethoxy-ethyl)-3-[4-(2-methyl-imidazo[4,5-c]pyridin-1-ylmethyl)-benzoyl]-1H-indole-4-carboxylic acid methyl ester] | 1.1
19 | COC(=O)c1cccc2c1c(C(=O)C1CCC(Cn3c(C)nc4cnccc43)CC1)cn2C(=O)N(C)C (centres undefined) [1-Dimethylcarbamoyl-3-[4-(2-methyl-imidazo[4,5-c]pyridin-1-ylmethyl)-cyclohexanecarbonyl]-1H-indole-4-carboxylic acid methyl ester] | 2.4
20 | Cc1nc2cnccc2n1Cc1ccc(C(=O)c2cn(C(=O)N(C)C)c3cccc(Cl)c23)cc1 [4-Chloro-3-[4-(2-methyl-imidazo[4,5-c]pyridin-1-ylmethyl)-benzoyl]-indole-1-carboxylic acid dimethylamide] | 5.4
21 | COC(=O)c1cccc2c1c(C(=O)CCCCn1c(C)nc3cnccc31)cn2C(=O)N(C)C [1-Dimethylcarbamoyl-3-[5-(2-methyl-imidazo[4,5-c]pyridin-1-yl)-pentanoyl]-1H-indole-4-carboxylic acid methyl ester] | 11
22 | CCOCCn1cc(C(=O)CN2CCC(n3c(C)nc4cnccc43)CC2)c2c(Cl)cccc21 [1-[4-Chloro-1-(2-ethoxy-ethyl)-1H-indol-3-yl]-2-[4-(2-methyl-imidazo[4,5-c]pyridin-1-yl)-piperidin-1-yl]-ethanone] | 15
23 | COC(=O)c1cccc2c1c(C(=O)c1ccc(Cn3c(C)nc4cnccc43)c(F)c1)cn2C(=O)N(C)C [1-Dimethylcarbamoyl-3-[3-fluoro-4-(2-methyl-imidazo[4,5-c]pyridin-1-ylmethyl)-benzoyl]-1H-indole-4-carboxylic acid methyl ester] | 5
24 | Cc1nc2cnccc2n1Cc1ccc(S(=O)(=O)c2cn(C(=O)N(C)C)c3ccccc23)cc1 [3-[4-(2-Methyl-imidazo[4,5-c]pyridin-1-ylmethyl)-benzenesulfonyl]-indole-1-carboxylic acid dimethylamide] | 12
